Measurements taken from patent US8688227B2, “Suction electrode-based medical instrument and system including the medical instrument for therapeutic electrotherapy” (Old Dominion Research Foundation, priority 2007, dated 2014).
Where two headings read alike, the source gives them in different places.

Assays:
GH3 or HeLa cells = test: PI uptake, positive control for permeabilization; type: cell-based; conditions: 0.03% added into the bath
Method: Moreover, the cells remained impermeable to PI even after extra-long trains of 200 pulses, which caused necrotic changes in cells morphology, and even when the observation period was extended to 30-60 min after the exposure.

hippocampal CA1 neurons = conditions: cited from earlier work
nsPEF-exposed cells = test: Whole-cell patch clamp of membrane conductance/resistance after nsPEF exposure; type: cell-based
Method: Experiments were performed in GH3 cells (a murine pituitary cell line) and HeLa cells (human epithelial cancer), both obtained from American Type Culture Collection (ATCC, Manassas, Va.) and cultured according to their recommendations. Cells were grown in 75-cm2 flasks at 37° C. with 5% CO2 in air. GH3 cells were cultured in Ham's F12K medium supplemented with 2.5% fetal bovine serum (FBS) and 15% horse serum (Atlanta Biologicals, Norcross, Ga.). HeLa cells were propagated in Eagle minimum essential medium with 10% FBS. The cultures also contained 1% L-glutamine and 1% penicillin/streptomycin (Mediatech Cellgro, Herndon, Va.). For passaging, cells were removed from the substrate with 2-3 ml of 0.25% Trypsin with 2.21 mM EGTA. The cultures were maintained in the logarithmic stage of growth and used at passages 3-15. For a passage immediately preceding the experiments, cells were grown attached to 8- or 10-nun diameter glass cover slips in 35-mm Petri dishes. The cover slips were pretreated with poly-1-lysine (Sigma-Aldrich, St. Louis, Mo.) to improve cell adherence.
These pairs were formulated to explore, in the first approximation, how different ion substitutions would affect Gm and the reversal potential (Erev) after nsPEF exposure. Two pairs (Cs/Na and Cs/Ba-TEA) were also used to explore nsPEF effects on voltage-gated Na^+ and Ca^2+ channels, respectively. In general, solution pairs from the top to the bottom of the Table 1 contain diminishing amounts and variety of monovalent ions, i.e., K and/or Na were replaced with larger cs^+, TEA^+, or NMDG^+. The contents of anions (C1 and HEPES) were kept almost constant and the same in bath and pipette solutions, except for the last pair, where most of the pipette C1 was replaced with HEPES^−. The pH of pipette and bath solutions was adjusted to 7.4 and 7.2, respectively; the ionic contents shown in Table 1 already include any extra amounts of ions added as a base or acid for pH adjustment. The osmolality of all solutions was between 290 and 320 mOsm, as measured with a freezing point microosmometer (Advanced Instruments, Inc., Norwood, Mass., USA).
Patch clamp recording: Cells on a cover slip were transferred into a glass-bottomed chamber (Warner Instruments, Hamden, Conn.) mounted on a motorized stage (Prior Scientific Inc., Rockland, Mass.) of an IX71 FluoView™ 300 confocal laser scanning microscope. […] The data from these experiments were analyzed differently (see below). […]
Once the whole-cell configuration was formed, the membrane resistance and capacitance (Rm and Cm) were measured using the Membrane Test utility of pClamp1 0 software. […] The membrane potential (MP) was measured by switching briefly from voltage to current clamp mode at I=0. […]

liver cells = conditions: oxidative stress-activated NSCCs; cited from earlier work

SMILES: C[C@@H]1CC[C@@]2(OC1)O[C@H]1[C@@H](O)[C@H]3[C@@H]4CC[C@H]5C[C@@H](O[C@@H]6O[C@H](CO)[C@H](O[C@@H]7O[C@H](CO)[C@@H](O)[C@H](O[C@@H]8OC[C@@H](O)[C@H](O)[C@H]8O)[C@H]7O[C@@H]7O[C@H](CO)[C@H](O)[C@H](O[C@@H]8O[C@H](CO)[C@@H](O)[C@H](O)[C@H]8O)[C@H]7O)[C@H](O)[C@H]6O)[C@H](O)C[C@]5(C)[C@H]4CC[C@]3(C)[C@H]1[C@@H]2C [digitonin]
- time to bright PI fluorescence after addition (GH3 or HeLa cells): 1 to 2 min
- permeabilization, PI fluorescence (GH3 or HeLa cells; PI in the medium): bright PI fluorescence

SMILES: [Cl][La]([Cl])[Cl] [La^3+]
- swelling and other deleterious effects of oxygen-glucose deprivation (hippocampal CA1 neurons; 100 AM): reduced swelling

SMILES: N.N.N.N.N.N.N.N.N.N.N.N.N.N.[Cl-].[Cl-].[Cl-].[Cl-].[Cl-].[Cl-].[O-2].[O-2].[Ru+3].[Ru+3].[Ru+4] [ruthenium red]
- membrane conductance increase by nsPEF (nsPEF-exposed cells; 10 p.M in bath of K/Na pair, prior to 1 or 5 pulses): neither enhanced nor inhibited
- effect on control (sham-exposed) cells (nsPEF-exposed cells; 50 and 200 μM in bath of K/Na pair): no apparent effect
- condition of nsPEF-exposed cells (nsPEF-exposed cells; 50 and 200 μM in bath of K/Na pair, prior to 1 or 5 pulses): worsened the condition
- swelling and other deleterious effects of oxygen-glucose deprivation (hippocampal CA1 neurons; 1 ilM): reduced swelling

SMILES: [Cl][Gd]([Cl])[Cl] [Gd^3+]
- protective effect against nsPEF (nsPEF-exposed cells; 0.2 mM, first trials): no protection
- swelling and other deleterious effects of oxygen-glucose deprivation (hippocampal CA1 neurons; 100 AM): reduced swelling
- number of necrotic cells (liver cells): sharply decreased
